Data as given in ChEMBL document CHEMBL5537169, “Structure-Activity Relationships and Discovery of (S)-6-Isopropyl-2-methoxy-3-(3-methoxypropoxy)-10-oxo-5,10-dihydro-6H-pyrido[1,2-h][1,7]naphthyridine-9-carboxylic Acid (AB-452), a Novel Orally Available HBV RNA Destabilizer” (J Med Chem, 2024).
One block for each compound: values may come before it.

Tests used:
[1] = Clearance in Sprague-Dawley rat at 2 mg/kg,iv measured at 0.083 to 24 hrs post administration by LC-MS/MS analysis; type: ADME, organism-based; details: in vivo, time 0.083-24 hrs
[2] = Drug accumulation in CD-1 mouse liver assessed as fold change in drug uptake at 10 mg/kg,po measured at 0.083 to 24 hrs post administration by LC-MS/MS analysis; type: ADME, organism-based; details: in vivo, time 0.083-24 hrs
[3] = Apparent volume of distribution at steady state in CD-1 mouse at 2 mg/kg,iv measured at 0.083 to 24 hrs post administration by LC-MS/MS analysis; type: ADME, organism-based; details: in vivo, time 0.083-24 hrs, read-out: Vdss(app)
HepG2 2.2.15 = assay: Cytotoxicity against human HepG2.2.15 cells by Cell-titer Glo luminescent assay; type: functional
[4] = Cmax in CD-1 mouse at 2 mg/kg,iv measured at 0.083 to 24 hrs post administration by LC-MS/MS analysis; type: ADME, organism-based; details: in vivo, time 0.083-24 hrs
[5] = Apparent volume of distribution at steady state in Sprague-Dawley rat at 2 mg/kg,iv measured at 0.083 to 24 hrs post administration by LC-MS/MS analysis; type: ADME, organism-based; details: in vivo, time 0.083-24 hrs, read-out: Vdss(app)
[6] = Half life in CD-1 mouse at 2 mg/kg,iv measured at 0.083 to 24 hrs post administration by LC-MS/MS analysis; type: ADME, organism-based; details: in vivo, time 0.083-24 hrs
[7] = Half life in CD-1 mouse at 10 mg/kg,po measured at 0.083 to 24 hrs post administration by LC-MS/MS analysis; type: ADME, organism-based; details: in vivo, time 0.083-24 hrs
[8] = Drug accumulation in Sprague-Dawley rat plasma assessed as fold change in drug uptake at 10 mg/kg,po measured at 0.083 to 24 hrs post administration by LC-MS/MS analysis; type: ADME, organism-based; details: in vivo, time 0.083-24 hrs
[9] = Half life in Sprague-Dawley rat at 10 mg/kg,po measured at 0.083 to 24 hrs post administration by LC-MS/MS analysis; type: ADME, organism-based; details: Sprague-Dawley, in vivo, time 0.083-24 hrs
[10] = Cmax in Sprague-Dawley rat at 10 mg/kg,po measured at 0.083 to 24 hrs post administration by LC-MS/MS analysis; type: ADME, organism-based; details: Sprague-Dawley, in vivo, time 0.083-24 hrs, read-out: Cmax
[11] = Clearance in CD-1 mouse at 2 mg/kg,iv measured at 0.083 to 24 hrs post administration by LC-MS/MS analysis; type: ADME, organism-based; details: in vivo, time 0.083-24 hrs
[12] = AUCinfinity in Sprague-Dawley rat at 10 mg/kg,po measured at 0.083 to 24 hrs post administration by LC-MS/MS analysis; type: ADME, organism-based; details: Sprague-Dawley, in vivo, time 0.083-24 hrs
[13] = AUCinfinity in CD-1 mouse at 10 mg/kg,po measured at 0.083 to 24 hrs post administration by LC-MS/MS analysis; type: ADME, organism-based; details: in vivo, time 0.083-24 hrs
[14] = AUCinfinity in Sprague-Dawley rat at 2 mg/kg,iv measured at 0.083 to 24 hrs post administration by LC-MS/MS analysis; type: ADME, organism-based; details: Sprague-Dawley, in vivo, time 0.083-24 hrs
Hepatitis B virus = assay: Antiviral activity against HBV infected in human HepG2.2.15 cells assessed as inhibition of HBsAg level incubated for 6 days by microplate-based chemiluminescence immunoassay; type: functional, organism-based; details: HepG2 2.2.15, 144 h
[15] = AUCinfinity in CD-1 mouse at 2 mg/kg,iv measured at 0.083 to 24 hrs post administration by LC-MS/MS analysis; type: ADME, organism-based; details: in vivo, time 0.083-24 hrs
[16] = Oral bioavailability in CD-1 mouse at 10 mg/kg measured at 0.083 to 24 hrs by LC-MS/MS analysis; type: ADME, organism-based; details: in vivo, time 0.083-24 hrs
[17] = Drug accumulation in CD-1 mouse plasma assessed as fold change in drug uptake at 10 mg/kg,po measured at 0.083 to 24 hrs post administration by LC-MS/MS analysis; type: ADME, organism-based; details: in vivo, time 0.083-24 hrs
[18] = Drug accumulation in Sprague-Dawley rat liver assessed as fold change in drug uptake at 10 mg/kg,po measured at 0.083 to 24 hrs post administration by LC-MS/MS analysis; type: ADME, organism-based; details: in vivo, time 0.083-24 hrs
[19] = Cmax in CD-1 mouse at 10 mg/kg,po measured at 0.083 to 24 hrs post administration by LC-MS/MS analysis; type: ADME, organism-based; details: in vivo, time 0.083-24 hrs
[20] = Cmax in Sprague-Dawley rat at 2 mg/kg,iv measured at 0.083 to 24 hrs post administration by LC-MS/MS analysis; type: ADME, organism-based; details: in vivo, time 0.083-24 hrs
[21] = Oral bioavailability in Sprague-Dawley rat at 10 mg/kg measured at 0.083 to 24 hrs by LC-MS/MS analysis; type: ADME, organism-based; details: Sprague-Dawley, in vivo, time 0.083-24 hrs
[22] = Half life in Sprague-Dawley rat at 2 mg/kg,iv measured at 0.083 to 24 hrs post administration by LC-MS/MS analysis; type: ADME, organism-based; details: in vivo, time 0.083-24 hrs
[23] = Clearance in human liver microsomes at 0.3 uM pre-incubated for 10 mins followed by NADPH addition incubated for 60 mins by LC-MS/MS analysis; type: ADME, Microsome; details: time 70 min, read-out: CLH
[24] = Clearance in CD-1 mouse liver microsomes at 0.3 uM pre-incubated for 10 mins followed by NADPH addition incubated for 60 mins by LC-MS/MS analysis; type: ADME, Microsome; details: time 70 min, read-out: CLH

Structure (SMILES): CC(C)[C@@H]1COc2cc(OCC(F)(F)F)c(Cl)cc2-c2cc(=O)c(C(=O)O)cn21
CC50 (HepG2 2.2.15): 36 µM | microsomal CLint at 0.3 µM [23]: 4 µL/min/mg | EC50 (Hepatitis B virus): 87 nM

Structure (SMILES): CC(C)C1Cc2sc(Cl)cc2-c2cc(=O)c(C(=O)O)cn21 (stereo not drawn)
CC50 (HepG2 2.2.15): > 50 µM | EC50 (Hepatitis B virus): 21000 nM

Structure (SMILES): COc1cc2c(cc1Cl)-c1cc(=O)c(C(=O)O)cn1[C@@H](C(C)C)CO2
CC50 (HepG2 2.2.15): > 50 µM | EC50 (Hepatitis B virus): 3500 nM

Structure (SMILES): COCc1nc2c(s1)CC(C(C)C)n1cc(C(=O)O)c(=O)cc1-2 (stereo not drawn)
CC50 (HepG2 2.2.15): > 50 µM | EC50 (Hepatitis B virus): 3000 nM

Structure (SMILES): COc1ccc(-c2cc(=O)c(C(=O)O)cn2CC(C)(C)C)cc1OC
EC50 (Hepatitis B virus): 10000 nM

Structure (SMILES): COc1cc2c(nc1OC)-c1cc(=O)c(C(=O)O)cn1[C@@H](C(C)C)C2
CC50 (HepG2 2.2.15): > 50 µM | EC50 (Hepatitis B virus): 300 nM

Structure (SMILES): COc1cc2c(cc1Cl)-c1cc(=O)c(C(=O)O)cn1C(C(C)C)CO2 (stereo not drawn)
CC50 (HepG2 2.2.15): 46 µM | EC50 (Hepatitis B virus): 76 nM

Structure (SMILES): COCCCOc1cc2c(cc1C)-c1cc(=O)c(C(=O)O)cn1[C@H](C(C)C)CO2
CC50 (HepG2 2.2.15): 39 µM | microsomal CLint at 0.3 µM [23]: 8 µL/min/mg | microsomal CLint at 0.3 µM [24]: 4 µL/min/mg | EC50 (Hepatitis B virus): 39 nM

Continued by falling EC50 (Hepatitis B virus), values first:

microsomal CLint at 0.3 µM [24]: 1 µL/min/mg | EC50 (Hepatitis B virus): 38 nM
Structure (SMILES): COc1cc2c(cc1Cl)-c1cc(=O)c(C(=O)O)cn1[C@H](C(C)C)CO2
CC50 (HepG2 2.2.15): > 50 µM

microsomal CLint at 0.3 µM [24]: 1 µL/min/mg | EC50 (Hepatitis B virus): 32 nM
Structure (SMILES): CC(C)[C@@H]1COc2cc(OCC3CC3)c(Cl)cc2-c2cc(=O)c(C(=O)O)cn21
CC50 (HepG2 2.2.15): 37 µM

microsomal CLint at 0.3 µM [23]: 4 µL/min/mg | microsomal CLint at 0.3 µM [24]: 6 µL/min/mg | EC50 (Hepatitis B virus): 19 nM
Structure (SMILES): CC(C)[C@@H]1COc2cc(OCCCO)c(Cl)cc2-c2cc(=O)c(C(=O)O)cn21
CC50 (HepG2 2.2.15): > 50 µM

microsomal CLint at 0.3 µM [24]: 1 µL/min/mg | EC50 (Hepatitis B virus): 14 nM
Structure (SMILES): CC(C)[C@@H]1COc2cc(OCCCCO)c(Cl)cc2-c2cc(=O)c(C(=O)O)cn21
CC50 (HepG2 2.2.15): > 50 µM

microsomal CLint at 0.3 µM [24]: 17 µL/min/mg | EC50 (Hepatitis B virus): 12 nM
Structure (SMILES): CC(C)[C@@H]1COc2cc(OCC(C)(C)CO)c(Cl)cc2-c2cc(=O)c(C(=O)O)cn21
CC50 (HepG2 2.2.15): > 50 µM

clearance [1]: 22 mL/min/kg | fold change (FC) [2]: 1 | Vd [3]: 4 L/kg | Cmax [4]: 470 ng/mL | Vd [5]: 2.7 L/kg | half-life [6]: 90 min | half-life [7]: 270 min | fold change (FC) [8]: 2.7 | half-life [9]: 264 min | Cmax [10]: 965 ng/mL | clearance [11]: 55 mL/min/kg | AUC(0-inf) [12]: 6480 ng·h/mL | AUC(0-inf) [13]: 4160 ng·h/mL | AUC(0-inf) [14]: 1570 ng·h/mL | EC50 (Hepatitis B virus): 8 nM | AUC(0-inf) [15]: 615 ng·h/mL | bioavailability [16]: 136% | fold change (FC) [17]: 0.1 | fold change (FC) [18]: 15 | Cmax [19]: 639 ng/mL | Cmax [20]: 1590 ng/mL | bioavailability [21]: 82% | half-life [22]: 264 min
Structure (SMILES): COCCCOc1cc2c(nc1OC)-c1cc(=O)c(C(=O)O)cn1[C@](C)(C(C)C)C2
CC50 (HepG2 2.2.15): > 50 µM

EC50 (Hepatitis B virus): 7.3 nM
Structure (SMILES): COc1cc2c(cc1OC)-c1cc(=O)c(C(=O)O)cn1[C@H](C(C)C)C2

EC50 (Hepatitis B virus): 6 nM
Structure (SMILES): CCC1(C(C)C)Cc2cc(OCCCOC)c(OC)nc2-c2cc(=O)c(C(=O)O)cn21 (stereo not drawn)
CC50 (HepG2 2.2.15): > 50 µM

EC50 (Hepatitis B virus): 4 nM
Structure (SMILES): C=Cc1cc2c(cc1OCCCOC)OC[C@@H](C(C)C)n1cc(C(=O)O)c(=O)cc1-2
CC50 (HepG2 2.2.15): 33 µM
